Measured values taken from patent US20040048791A1, “Method for treating neoplastic cells using cycloprodigiosin or salt thereof” (priority 2002, published 2004).

Experiments:
HeLa cells [1] = experiment: DNA fragmentation (apoptosis) in HeLa cells; format: cell-based; settings: stimulation by TNFα alone, FIG. 1A
Experimental: (§1) Cell culture: HeLa cells were cultured in Dulbecco's modified Eagle's medium supplemented with 10% fetal bovine serum and 50 μg/ml kanamycin at 37° C. in 5% CO2 in air.
(§2) Assay for apoptotic processes: Cell viability was determined by dye exclusion assay using 0.1% trypan blue. DNA fragmentation was analyzed as described previously (Kawauchi, K. et al. (1997) Biochem. Biophys. Res. Commun. 237, 543-547). In the caspase-3 assay, cells were disrupted by freeze-thaw in an extraction buffer (50 mM Tris-HCl, pH7.4, 1 mM EGTA, 5 mM EDTA, 5 mM MgCl2, 1 mM APMSF, 10 μg/ml pepstatin, 10 μg/ml leupeptin, and 1 mM DTT). Then the suspension was centrifuged at 15,000 rpm for 20 min, and the supernatants obtained were incubated at 37° C. for 60 min in a reaction buffer (50 mM Tris-HCl, pH7.4, 1 mM EDTA, 10 mM EGTA) with 20 μM of the fluorogenic substrate DEVD-AFC (Peptide Institute, Inc., Japan). Cleavage of the substrates was quantified by measuring the fluorescence of 7-amino-4-trifluomethyl coumarin released using a spectrofluorometer (Shimadzu RF5000) with excitation at 380 mn and emission at 460 nm.
HeLa cells were treated with TNFα and cPrG.HCl and the effect of cPrG.HCl on apoptosis was examined by measuring DNA fragmentation and survivability.

HeLa cells [2] = experiment: Cell viability by trypan blue dye exclusion assay; format: cell-based; settings: stimulation by TNFα alone, FIG. 1A
Experimental: as §1, §2

NF-κB = NF-κB luciferase gene reporter assay (pIG3Luc) in HeLa cells; format: cell-based; settings: HeLa cells, FIG. 2A, 2C
Source text: The plasmids, pRKF-IKKα and pRKHA-IKKβ have been described previously (Oka, S., Kamata, H., Kamata, K., Yagisawa, H. and Hirata, H. (2000) FEBS Lett., 472, 196-202). pRKF-IKKαEE and pRK-HA-IKKβEE encode constitutively active mutants of IKKα, in which 176 and 180 serine residues in an activation loop are replaced by glutamic acid residues, and IKKβ, in, which 177 and 181 serine residues are replaced by glutamic acid residues, respectively. A reporter plasmid pIG3Luc for NF-κB encodes triple NF-κB binding site sequences (AGCTTCAGAGGGGACTRANSCRIPTIONCCGAGAGG) (SEQ ID NO: 2) followed by the luciferase gene. A control plasmid, pBKRLuc, was obtained from Toyobo (Toyo B-Net Co., Japan). pcDNAF-MEKK1, pRKF-p65, pEFBOSHA-Rac1-DA, and pEFBOSHA-Cdc42-DA, are the expression plasmids for MEKK1, the NF-κB subunit p65, constitutively active Rac1 and Cdc42, respectively.
Luciferase gene reporter assay and Kinase assays of IKK: HeLa cells were transfected with the reporter plasmids described above using Lipofectin (GIBCO BRL). After 24-48 hr, the luciferase activity was determined using the Luciferase Assay System (Promega). The kinase activity of IKKα and IKKβ were analyzed by immune complex kinase assay as described previously (Oka, S., Kamata, H., Kamata, K., Yagisawa, H. and Hirata, H. (2000) FEBS Lett. 472, 196-202). The substrates was using GST-IκBα(1-55) or GST-p65(399-551).
The gene expression induction by NF-κB activation plays the most important role among “life” signals by TNFα. Therefore, the NF-κB reporter gene was introduced into the cells to analyze the effect of cPrG-HCl by luciferase assay.
NF-κB is translocated into the nucleus also by activation with low-molecular-weight G proteins Rac1 and Cdc42 or MEKK1 and induces gene expression. An activated Rac1, Cdc42 or MEKK1 expression plasmid was introduced together with the NF-κB reporter gene into cells and the effect of cPrG-HCl on NF-κB activation was measured by luciferase assay (FIG. 4A and FIG. 4B).

[3] = Oka et al. (2000) FEBS Lett.; cited from earlier work
[4] = as compared to FCCP
female ICR mice = experiment: Toxicity on intraperitoneal administration to mice; format: in vivo; settings: 5 weeks old, 25 to 29 g

With TNFα the DNA fragmentation (HeLa cells [1]) was “hardly observed” and the “decrease in cell viability” value (HeLa cells [2]) was “hardly observed”.
With CO/C1=C\C(C)=C\[C@@H](C)[C@@H](O)[C@@H](C)C/C(C)=C/C=C/[C@H](OC)[C@@H]([C@@H](C)[C@@H](O)[C@H](C)[C@@]2(O)C[C@@H](O)[C@H](C)[C@@H](C(C)C)O2)OC1=O [bafilomycin, reference compound] the “TNFα-induced NF-κB activation (gene expression induction, luciferase)” value (NF-κB) was “not suppressed”.
In the case of CC(=O)N[C@@H](CS)C(=O)O [N-acetylcysteine], the effect on apoptosis [3] is given as “inhibits”.
For COC1=CC(c2ccc[nH]2)=N/C1=C\c1[nH]c(C)c2c1C(C)CCC2 (stereo not drawn) [cPrG, Cycloprodigiosin], the ionophore activity [4] was “no ionophore activity” and the LD50 (female ICR mice) was “greater than 10 mg”.
